Data published in ChEMBL document CHEMBL4261565, “A systematic analysis of atomic protein-ligand interactions in the PDB” (Medchemcomm, 2017).

Target: Coagulation factor X (Homo sapiens, UniProt P00742)
Assay: Inhibition of human factor 10a using […] as substrate by spectrophotometric method

Sequence of Coagulation factor X (P00742 41-179 limits assumed): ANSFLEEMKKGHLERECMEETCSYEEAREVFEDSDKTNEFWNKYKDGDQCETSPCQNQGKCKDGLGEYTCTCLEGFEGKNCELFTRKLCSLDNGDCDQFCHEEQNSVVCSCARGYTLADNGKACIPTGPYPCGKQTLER
Sequence of Coagulation factor X (P00742 235-488 limits assumed): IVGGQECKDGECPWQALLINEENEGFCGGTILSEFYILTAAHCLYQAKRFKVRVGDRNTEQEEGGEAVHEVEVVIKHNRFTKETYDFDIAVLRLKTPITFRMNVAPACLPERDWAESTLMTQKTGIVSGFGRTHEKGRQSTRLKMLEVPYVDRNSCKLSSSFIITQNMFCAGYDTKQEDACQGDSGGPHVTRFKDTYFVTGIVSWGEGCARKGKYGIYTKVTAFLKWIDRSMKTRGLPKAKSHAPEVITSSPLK

C[N+](C)(C)CCCN1C(=O)[C@@H]2[C@H](C1=O)[C@H](c1cc(-c3ccc(Cl)s3)on1)N1CCC[C@@H]21 (racemic)
Ki: 9 nM

CNCCCN1C(=O)[C@@H]2[C@H](C1=O)[C@H](c1cc(-c3ccc(Cl)s3)on1)N1CCC[C@@H]21 (racemic)
Ki: 911 nM

CN(C)CCCN1C(=O)[C@@H]2[C@H](C1=O)[C@H](c1cc(-c3ccc(Cl)s3)on1)N1CCC[C@@H]21 (racemic)
Ki: 56 nM

NCCCN1C(=O)[C@@H]2[C@H](C1=O)[C@H](c1cc(-c3ccc(Cl)s3)on1)N1CCC[C@@H]21 (racemic)
Ki: 9800 nM

CC(C)(C)CCCN1C(=O)[C@@H]2[C@H](C1=O)[C@H](c1cc(-c3ccc(Cl)s3)on1)N1CCC[C@@H]21 (racemic)
Ki: 550 nM
